This is an account of results in PubChem BioAssay (NCI).

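Compound exposure: 48 hours, 5 concentrations, 96-well plates. TGI denotes the concentration required for complete inhibition of growth.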

Test systems include TK-10 renal; PC-3 prostate; MOLT-4 leukemia; UO-31 renal; OVCAR-5 ovarian; OVCAR-8 ovarian; 786-0 renal; HCT-116 colon; DU-145 prostate; HL-60(TB) leukemia; SK-MEL-5 melanoma.
Assay in all cases: DTP human tumour cell line panel, 48 h

`COc1ccc(N2C(=O)C3ON(C(C(N)=O)c4ccccc4)C(c4ccc(-c5ccccc5)cc4)C3C2=O)cc1` (configuration not stated): the concentration for total growth inhibition (TGI) in the test on TK-10 renal, in the test on PC-3 prostate, in the test with MOLT-4 leukemia, with UO-31 renal, in the test with OVCAR-5 ovarian and in the test on OVCAR-8 ovarian was over 50 µM throughout. The TGI in the test on 786-0 renal, with HCT-116 colon, in the test on DU-145 prostate and with HL-60(TB) leukemia was over 50 µM throughout.
Consider `CC1(C2(C)OC(=O)c3ccccc32)OC(=O)c2ccccc21` (configuration not stated), for which the TGI in the test on TK-10 renal, in the test on PC-3 prostate, with MOLT-4 leukemia, with UO-31 renal, with OVCAR-8 ovarian and with 786-0 renal was over 100 µM each time. Moreover, the TGI in the test on HCT-116 colon, with DU-145 prostate, in the test on SK-MEL-5 melanoma and with HL-60(TB) leukemia was over 100 µM in each case.
As for `O=C1CCC[C@]2(CCC[C@@H](O)C2)N1`, the total growth inhibition concentration (TGI) in the test with TK-10 renal, with PC-3 prostate, with OVCAR-5 ovarian, in the test on OVCAR-8 ovarian, in the test with 786-0 renal and in the test with HCT-116 colon was over 100 µM throughout. The TGI with DU-145 prostate, in the test with SK-MEL-5 melanoma and with HL-60(TB) leukemia was over 100 µM each time.
As to `Cc1ccc(S(=O)(=O)NN=C2CCCCCCCCCCC2)cc1`, the TGI with TK-10 renal, in the test on PC-3 prostate, in the test with MOLT-4 leukemia, in the test on UO-31 renal, with OVCAR-5 ovarian and in the test with OVCAR-8 ovarian was over 100 µM each time. The TGI with 786-0 renal, in the test with HCT-116 colon, in the test on DU-145 prostate, in the test on SK-MEL-5 melanoma and in the test on HL-60(TB) leukemia was over 100 µM each time.
For the compound `CC(C)(C)c1ccc(-c2nc3ccc([N+](=O)[O-])cc3c(=O)o2)cc1`, the TGI with TK-10 renal was over 100 µM; in the test with PC-3 prostate it was 72.5 µM; with MOLT-4 leukemia, 46.4 µM; in the test with UO-31 renal it was 93.8 µM; with OVCAR-5 ovarian, over 100 µM; in the test with OVCAR-8 ovarian, 83.9 µM. For the same compound, the TGI in the test with 786-0 renal is over 100 µM; with HCT-116 colon it was 81.2 µM; with DU-145 prostate it was over 100 µM; in the test with SK-MEL-5 melanoma, 74.9 µM; in the test with HL-60(TB) leukemia, 65.6 µM.
Take `O=C1C(/C=C/c2ccc(Cl)cc2)=NNC2N1N=C1NC(=O)C3(NN12)c1ccccc1-c1ccccc13` (configuration not stated): the total growth inhibition concentration (TGI) in the test with TK-10 renal, with PC-3 prostate, in the test on UO-31 renal, in the test on OVCAR-5 ovarian, in the test with OVCAR-8 ovarian and with 786-0 renal was over 100 µM in each case. The concentration for total growth inhibition (TGI) in the test with HCT-116 colon, in the test on DU-145 prostate, in the test with SK-MEL-5 melanoma and in the test on HL-60(TB) leukemia was over 100 µM throughout.
With `O=C(CC(=O)N1N=C(N2CCCCC2)CC1c1ccccc1)Nc1ccc(Cl)cc1` (configuration not stated), the TGI in the test on TK-10 renal, with PC-3 prostate, in the test with MOLT-4 leukemia, with UO-31 renal, with OVCAR-5 ovarian and in the test on OVCAR-8 ovarian was over 100 µM throughout. The TGI in the test with 786-0 renal, in the test with HCT-116 colon, in the test with DU-145 prostate, in the test on SK-MEL-5 melanoma and in the test on HL-60(TB) leukemia was over 100 µM each time.
On to `CN(C)c1ccc(/C=C(\C#N)C(N)=C(C#N)C#N)cc1`, for which the total growth inhibition concentration (TGI) in the test on TK-10 renal, in the test with PC-3 prostate, in the test with UO-31 renal, in the test with OVCAR-5 ovarian, with OVCAR-8 ovarian and in the test with 786-0 renal was over 100 µM in each case. The concentration for total growth inhibition (TGI) in the test on HCT-116 colon, in the test with DU-145 prostate, in the test with SK-MEL-5 melanoma and with HL-60(TB) leukemia was over 100 µM in each case.
As for `N#CCCN(CCC#N)c1ccc(C(N=Nc2ccccc2)=Nc2ccccc2)cc1`, the total growth inhibition concentration (TGI) with TK-10 renal, in the test with PC-3 prostate, in the test with MOLT-4 leukemia, with UO-31 renal, in the test on OVCAR-5 ovarian and with OVCAR-8 ovarian was over 100 µM in each case. Further, the TGI with 786-0 renal, in the test with HCT-116 colon, in the test with DU-145 prostate and in the test with SK-MEL-5 melanoma was over 100 µM each time.
Consider `COc1ccc2nc3ccc(OC)cc3c(S(=O)(=O)Cc3ccc([N+](=O)[O-])cc3)c2c1`, for which the TGI in the test on TK-10 renal, in the test on PC-3 prostate, in the test on MOLT-4 leukemia, with UO-31 renal, in the test on OVCAR-5 ovarian and in the test on OVCAR-8 ovarian was over 100 µM each time. In addition, the concentration for total growth inhibition (TGI) with 786-0 renal, in the test with HCT-116 colon, with DU-145 prostate and in the test with HL-60(TB) leukemia was over 100 µM throughout.
Consider `COc1ccc(N=C(C)c2ccncc2)cc1`, for which the TGI in the test with TK-10 renal, with PC-3 prostate, in the test on MOLT-4 leukemia, with UO-31 renal, with OVCAR-5 ovarian and in the test with OVCAR-8 ovarian was over 100 µM each time. Also, the TGI in the test on 786-0 renal, with HCT-116 colon, in the test with DU-145 prostate and with SK-MEL-5 melanoma was over 100 µM each time.
For the compound `CC1(C)CC[C@]2(C)CC=C3[C@]4(C)CC[C@H]5C(C)(C)C(=O)CC[C@]5(C)[C@H]4CC[C@@]3(C)[C@H]2C1`, the TGI in the test on TK-10 renal, with PC-3 prostate, with MOLT-4 leukemia, with UO-31 renal, in the test on OVCAR-5 ovarian and in the test with OVCAR-8 ovarian was over 100 µM each time. Also, the total growth inhibition concentration (TGI) in the test with 786-0 renal, with HCT-116 colon, in the test on DU-145 prostate and with SK-MEL-5 melanoma was over 100 µM in each case.
In the case of `CC(OC(=O)NCn1cc(-c2ccccc2)nn1)c1ccccc1` (configuration not stated), the TGI in the test on TK-10 renal is over 100 µM; in the test on PC-3 prostate, 5.23 µM; in the test with MOLT-4 leukemia, 47.4 µM; with OVCAR-5 ovarian it was over 100 µM; in the test on OVCAR-8 ovarian, over 100 µM; with 786-0 renal, over 100 µM. In addition, the concentration for total growth inhibition (TGI) was over 100 µM in the test on HCT-116 colon, over 100 µM in the test with DU-145 prostate, 32.4 µM in the test with SK-MEL-5 melanoma and 75 µM with HL-60(TB) leukemia.
